Measured values as given in ChEMBL document CHEMBL5058564, “EUbOPEN Chemogenomics Library 2 (Incucyte)” (2022).

Tests used:
Format in all cases: toxicity, cell-based
Fibroblast = experiment: Incucyte cell viability with human fibroblast; conditions: 10 µM, compound concentration 10 uM
U2OS = experiment: Incucyte cell viability with U2OS; conditions: human, 10 µM, compound concentration 10 uM
HEK-293T = experiment: Incucyte cell viability with HEK293T; conditions: human, 10 µM, compound concentration 10 uM
[1] = 0 h, replicate number 1, timepoint 0 hours
[2] = 0 h, replicate number 2, timepoint 0 hours
[3] = 6 h, replicate number 1, timepoint 6 hours
[4] = 6 h, replicate number 2, timepoint 6 hours
[5] = 12 h, replicate number 1, timepoint 12 hours
[6] = 12 h, replicate number 2, timepoint 12 hours
[7] = 18 h, replicate number 1, timepoint 18 hours
[8] = 18 h, replicate number 2, timepoint 18 hours
[9] = 24 h, replicate number 1, timepoint 24 hours
[10] = 24 h, replicate number 2, timepoint 24 hours
Also: unitless GR value; below 1 slowed growth and below 0 cell loss.

Structure (SMILES) | Growth Rate (Fibroblast; [1]) | Growth Rate (Fibroblast; [2]) | Growth Rate (Fibroblast; [3]) | Growth Rate (Fibroblast; [4]) | Growth Rate (Fibroblast; [5]) | Growth Rate (Fibroblast; [7]) | Growth Rate (Fibroblast; [9]) | Growth Rate (U2OS; [1]) | Growth Rate (U2OS; [2]) | Growth Rate (U2OS; [4]) | Growth Rate (U2OS; [5]) | Growth Rate (U2OS; [6]) | Growth Rate (U2OS; [7]) | Growth Rate (U2OS; [8]) | Growth Rate (U2OS; [9]) | Growth Rate (HEK-293T; [3]) | Growth Rate (HEK-293T; [5]) | Growth Rate (HEK-293T; [7]) | Growth Rate (HEK-293T; [9]) | Growth Rate (HEK-293T; [2]) | also measured
COc1c(C)cc(NC(=O)c2nn(Cc3ccc(F)cc3)c3c2CN(C(=O)c2ccc[nH]2)C[C@]3(C)C(N)=O)cc1C | 0.8 | 0.51 | -0.71 | 0.46 | -0.33 | -0.18 | -0.31 | -0.69 | -0.16 | 0.73 | 0.56 | 0.68 | 0.61 | 0.66 | 0.61 | 0.35 | 0.13 | 0.11 | 0.15 | – | Growth Rate (Fibroblast; [6]): 0.15; Growth Rate (Fibroblast; [8]): 0.32; Growth Rate (Fibroblast; [10]): 0.29; Growth Rate (U2OS; [3]): 0.56; Growth Rate (U2OS; [10]): 0.67; Growth Rate (HEK-293T; [1]): 0.79
COc1ccc2[nH]c(I)c(CCNC(C)=O)c2c1 [IODOMELATONIN] | – | – | 0.67 | 0.7 | 0.97 | – | – | – | -0.81 | 0.81 | – | 0.99 | 0.84 | 0.91 | – | 0.9 | – | – | – | 0.55 | Growth Rate (Fibroblast; [8]): 0.79; Growth Rate (U2OS; [10]): 0.91; Growth Rate (HEK-293T; [4]): 0.72
CN1CCN(c2ccc(Nc3c4ccccc4nc4ccccc34)cc2)CC1.Cl.Cl.O | – | 0.35 | -0.84 | 0.16 | -0.56 | -0.39 | -0.25 | – | 0.67 | 0.29 | -0.09 | -0.02 | -0.2 | -0.17 | -0.28 | -0.94 | -0.78 | -0.62 | -0.48 | – | Growth Rate (Fibroblast; [6]): 0.17; Growth Rate (Fibroblast; [8]): 0.08; Growth Rate (Fibroblast; [10]): 0.11; Growth Rate (U2OS; [3]): 0.19; Growth Rate (HEK-293T; [4]): -0.96; Growth Rate (HEK-293T; [6]): -0.81; Growth Rate (HEK-293T; [8]): -0.61; Growth Rate (HEK-293T; [10]): -0.52
Cc1cc(NC(=O)NCCN2CCC(O)(Cc3ccccc3)CC2)c2ccccc2n1 [PALOSURAN] | – | 0.27 | -0.3 | – | 0.72 | 0.32 | 0.22 | 0.34 | 0.13 | 0.73 | 0.33 | – | 0.73 | 0.98 | 0.87 | 0.95 | 0.83 | – | – | -1 | Growth Rate (U2OS; [3]): 0.57; Growth Rate (HEK-293T; [1]): 0.55
O=C(O)COc1cccc(-c2ocnc2-c2nc(-c3ccccc3)c(-c3ccccc3)o2)c1 | 0.04 | 0.64 | 0.49 | 0.07 | 0.59 | 0.64 | 0.59 | -0.56 | 0.7 | – | 0.74 | – | 0.88 | – | 1 | – | 0.79 | 0.67 | 0.9 | -0.17 | Growth Rate (Fibroblast; [6]): 0.91; Growth Rate (HEK-293T; [1]): 0.53; Growth Rate (HEK-293T; [10]): 0.98
CCCN1CCC[C@@H]2Cc3n[nH]cc3C[C@H]21.Cl [QUINPIROLE HYDROCHLORIDE] | -0.18 | 0.29 | 0.59 | – | 0.29 | 0.54 | – | – | – | 0.9 | – | 0.66 | 0.9 | 0.96 | 0.88 | 0.41 | – | – | – | 0.26 | Growth Rate (U2OS; [3]): -0.04; Growth Rate (U2OS; [10]): 0.96
CNC(=O)[C@H]1O[C@@H](n2cnc3c(NCc4cccc(I)c4)ncnc32)[C@H](O)[C@@H]1O [IB-MECA] | 0.22 | – | 0.12 | -0.56 | 0.45 | 0.7 | 0.54 | -0.65 | -0.98 | 0.82 | 0.89 | 0.85 | 0.79 | 0.76 | – | – | – | 0.64 | 0.64 | 0.3 | Growth Rate (Fibroblast; [6]): 0.1; Growth Rate (Fibroblast; [8]): 0.24; Growth Rate (Fibroblast; [10]): 0.42; Growth Rate (U2OS; [3]): 0.98; Growth Rate (U2OS; [10]): 0.81; Growth Rate (HEK-293T; [1]): 0.11; Growth Rate (HEK-293T; [6]): 1; Growth Rate (HEK-293T; [8]): 0.98; Growth Rate (HEK-293T; [10]): 0.83
Cc1noc(-c2ccc(-c3ccc(CC(=O)O)cc3)cc2)c1NC(=O)O[C@H](C)c1ccccc1Cl | -0.69 | 0.54 | – | – | – | – | – | – | – | 0.82 | – | 0.92 | – | 0.93 | – | – | 0.85 | 0.67 | 0.81 | – | Growth Rate (U2OS; [10]): 0.95
C[C@@H]1CC(=O)Nc2cccc(-c3ccc4c(c3)c(-c3cnn(C)c3)nn4C)c2N1 | – | – | 0.21 | – | – | – | – | -0.4 | – | – | 0.53 | – | 0.7 | – | 0.85 | 0.14 | 0.43 | 0.41 | 0.38 | 0.93 | Growth Rate (U2OS; [3]): 0.24; Growth Rate (HEK-293T; [4]): 0.26; Growth Rate (HEK-293T; [6]): 0.42; Growth Rate (HEK-293T; [8]): 0.45; Growth Rate (HEK-293T; [10]): 0.43
N[C@@]1(C(=O)O)CO[C@H]2[C@H](C(=O)O)[C@H]21 [LY-379268] | – | 0.44 | – | 0.16 | – | – | – | -0.44 | -0.79 | 0.99 | – | – | – | 0.92 | – | – | – | – | – | 0.79 | Growth Rate (Fibroblast; [6]): 0.66; Growth Rate (HEK-293T; [1]): 0.68; Growth Rate (HEK-293T; [4]): 0.88
CNCCN1CCC(c2cc(CN(C)C(=O)c3cccc(Oc4ccccc4)c3)ccn2)CC1 | 0.7 | 0.9 | 0.73 | 0.98 | 0.83 | 0.55 | 0.43 | -0.2 | 0.56 | 0.98 | 0.88 | 0.99 | 0.96 | – | 0.37 | 0.74 | 0.76 | 0.98 | 1 | – | Growth Rate (HEK-293T; [6]): 0.86; Growth Rate (HEK-293T; [8]): 0.92; Growth Rate (HEK-293T; [10]): 0.81
C[C@H](CCC(=O)O)[C@H]1CC[C@H]2[C@@H]3CC[C@@H]4C[C@H](O)CC[C@]4(C)[C@H]3CC[C@]12C [LITHOCHOLIC ACID] | – | 0.62 | 0.65 | – | 0.42 | 0.36 | 0.22 | 0.9 | 0.03 | 0.51 | 0.79 | 0.77 | 0.78 | 0.79 | 0.96 | 0.39 | 0.56 | 0.75 | 0.76 | 0.75 | Growth Rate (Fibroblast; [6]): 0.98; Growth Rate (Fibroblast; [8]): 0.98; Growth Rate (Fibroblast; [10]): 0.78; Growth Rate (U2OS; [10]): 0.75; Growth Rate (HEK-293T; [1]): 0.8; Growth Rate (HEK-293T; [6]): 0.96; Growth Rate (HEK-293T; [10]): 0.86
CSc1ccccc1N1CCN(CCCCCC(=O)NC2CCCc3ccccc32)CC1.Cl (stereo not drawn) | 0.06 | – | – | 0.95 | 0.31 | 0.05 | -0.06 | -0.43 | 0.92 | – | 0.43 | 0.96 | 0.53 | 0.92 | 0.76 | -0.01 | 0.07 | 0.16 | 0.29 | – | Growth Rate (Fibroblast; [6]): 0.26; Growth Rate (Fibroblast; [8]): 0.24; Growth Rate (Fibroblast; [10]): 0.23; Growth Rate (U2OS; [3]): 0.17; Growth Rate (U2OS; [10]): 0.94; Growth Rate (HEK-293T; [4]): -0.04; Growth Rate (HEK-293T; [6]): -0.09; Growth Rate (HEK-293T; [8]): 0.15; Growth Rate (HEK-293T; [10]): 0.17
